The text below walks through data of PubChem BioAssay AID226 (DTP/NCI, 2004).

“And” between values parts separate entries of the source, which are not always exact repeats. Equal values may be shown once. Toxic doses and inconclusive results are not listed.

This experiment concerns B6C3F1 mice, intracerebral ependymoblastoma, median survival T/C. The experiment in a line: NCI In Vivo Anticancer Drug Screen. Data for tumor model Ependymoblastoma (intracerebral) in B6C3F1 mice. The following applies: endpoint: median survival time, higher = longer survival. On the procedure:
The antitumor activity of compounds was measured in mice bearing transplantable tumors. Survival or tumor size were measured and the results are expressed as the measurement made in the treated group (T) divided by the measurement made in the vehicle treated control group (C). The tumor model used in this assay is Ependymoblastoma (intracerebral) in B6C3F1 mice

[1] abbreviates: dose: 4.0 mg/kg/injection, schedule: Q01DX001 (oral), vehicle: saline.
Where [2] appears, read: dose: 8.0 mg/kg/injection, schedule: Q01DX001 (oral), vehicle: saline.
The mark [3] stands for this setting: dose: 16.0 mg/kg/injection, schedule: Q01DX001 (oral), vehicle: saline.

For the molecule `NC(=S)N/N=C/c1ccc(O)cn1`, the T/C is, setting by setting: (dose: 12.0 mg/kg/injection, schedule: Q01DX005 (ip), vehicle: saline) 102 % of control; (dose: 24.0 mg/kg/injection, schedule: Q01DX005 (ip), vehicle: saline) 107 % of control; (dose: 48.0 mg/kg/injection, schedule: Q01DX005 (ip), vehicle: saline) 110 % of control; (dose: 96.0 mg/kg/injection, schedule: Q01DX005 (ip), vehicle: saline) 115 % of control.

As to `COC(=O)[C@@]12OC[C@]34[C@H]([C@@H](O)[C@@H]1O)[C@@]1(C)CC(=O)C(O)=C(C)[C@@H]1C[C@H]3OC(=O)[C@H](OC(=O)/C=C(\C)C(C)C)[C@@H]24`, the T/C was 100 % of control and 101 % of control (dose: 0.03 mg/kg/injection, schedule: Q01DX005 (ip), vehicle: saline + alcohol); 92 % of control and 97 % of control (dose: 0.06 mg/kg/injection, schedule: Q01DX005 (ip), vehicle: saline + alcohol); 98 % of control and 101 % of control (dose: 0.12 mg/kg/injection, schedule: Q01DX005 (ip), vehicle: saline + alcohol); 100 % of control (dose: 0.12 mg/kg/injection, schedule: Q01DX005 (oral), vehicle: saline); 109 % of control (dose: 0.12 mg/kg/injection, schedule: Q12HX006 (ip), vehicle: saline); 95 % of control and 96 % of control (dose: 0.25 mg/kg/injection, schedule: Q01DX005 (ip), vehicle: saline + alcohol). Further, the T/C (dose: 0.25 mg/kg/injection, schedule: Q12HX002 (ip), vehicle: saline) is 107 % of control; the T/C (dose: 0.25 mg/kg/injection, schedule: Q12HX006 (ip), vehicle: saline) is 116 % of control; the T/C (dose: 0.5 mg/kg/injection, schedule: Q01DX001 (ip), vehicle: saline) was 111 % of control and 115 % of control and 116 % of control; the T/C (dose: 0.5 mg/kg/injection, schedule: Q01DX005 (ip), vehicle: saline + alcohol) is 92 % of control and 95 % of control; the T/C (dose: 0.5 mg/kg/injection, schedule: Q01DX005 (oral), vehicle: saline) is 101 % of control; the T/C (dose: 0.5 mg/kg/injection, schedule: Q12HX002 (ip), vehicle: saline) was 107 % of control. For the same molecule, the T/C runs as follows: (dose: 0.5 mg/kg/injection, schedule: Q12HX006 (ip), vehicle: saline) 116 % of control; (dose: 1.0 mg/kg/injection, schedule: Q01DX001 (ip), vehicle: saline) 101 % of control and 110 % of control and 111 % of control; (dose: 1.0 mg/kg/injection, schedule: Q01DX005 (ip), vehicle: saline + alcohol) 95 % of control and 100 % of control; (dose: 1.0 mg/kg/injection, schedule: Q01DX005 (oral), vehicle: saline) 100 % of control; (dose: 1.0 mg/kg/injection, schedule: Q12HX002 (ip), vehicle: saline) 102 % of control; (dose: 1.0 mg/kg/injection, schedule: Q12HX006 (ip), vehicle: saline) 119 % of control. Moreover, the T/C runs as follows: (dose: 2.0 mg/kg/injection, schedule: Q01DX001 (ip), vehicle: saline) 119 % of control and 123 % of control; (dose: 2.0 mg/kg/injection, schedule: Q01DX001 (oral), vehicle: saline) 101 % of control and 109 % of control and 115 % of control; (dose: 2.0 mg/kg/injection, schedule: Q01DX005 (ip), vehicle: saline + alcohol) 98 % of control; (dose: 2.0 mg/kg/injection, schedule: Q01DX005 (oral), vehicle: saline) 105 % of control; (dose: 2.0 mg/kg/injection, schedule: Q12HX002 (ip), vehicle: saline) 110 % of control; (dose: 4.0 mg/kg/injection, schedule: Q01DX001 (ip), vehicle: saline) 115 % of control. For the same molecule, the T/C is, setting by setting: under setting [1], 95 % of control and 101 % of control and 123 % of control; (dose: 4.0 mg/kg/injection, schedule: Q12HX002 (ip), vehicle: saline) 101 % of control; under setting [2], 95 % of control and 96 % of control and 108 % of control; under setting [3], 105 % of control.

As to `CN(C)/N=N/c1[nH]ncc1C(N)=O`, the T/C (dose: 32.0 mg/kg/injection, schedule: Q01DX005 (ip), vehicle: saline) is 150 % of control; the T/C (dose: 64.0 mg/kg/injection, schedule: Q01DX005 (ip), vehicle: saline) was 176 % of control; the T/C (dose: 128.0 mg/kg/injection, schedule: Q01DX005 (ip), vehicle: saline with Tween-80) was 151 % of control; the T/C (dose: 128.0 mg/kg/injection, schedule: Q01DX005 (ip), vehicle: saline) is 155 % of control; the T/C (dose: 256.0 mg/kg/injection, schedule: Q01DX005 (ip), vehicle: saline) is 96 % of control.

`Cc1ncc(CO)c(C)c1O`: the T/C runs as follows: (dose: 128.0 mg/kg/injection, schedule: Q01DX005 (ip), vehicle: Klucel (hydroxypropylcellulose) (HPC)) 102 % of control and 108 % of control; (dose: 256.0 mg/kg/injection, schedule: Q01DX005 (ip), vehicle: Klucel (hydroxypropylcellulose) (HPC)) 101 % of control and 105 % of control.

On to `COc1cccc2c1C(=O)c1c(O)c3c(c(O)c1C2=O)C[C@@](O)(C(=O)CO)C[C@@H]3OC1CC(N)C(O)C(C)O1` (stereo not given in full), for which the T/C was 104 % of control (dose: 0.06 mg/kg/injection, schedule: Q03HX008 (ip), vehicle: saline); 96 % of control (dose: 0.12 mg/kg/injection, schedule: Q01DX005 (ip), vehicle: water); 100 % of control and 113 % of control (dose: 0.12 mg/kg/injection, schedule: Q03HX008 (ip), vehicle: saline); 94 % of control and 113 % of control and 114 % of control (dose: 0.25 mg/kg/injection, schedule: Q01DX005 (ip), vehicle: saline); 102 % of control (dose: 0.25 mg/kg/injection, schedule: Q01DX005 (ip), vehicle: water); 106 % of control and 120 % of control (dose: 0.25 mg/kg/injection, schedule: Q03HX008 (ip), vehicle: saline). For the same molecule, the T/C is 103 % of control and 105 % of control and 114 % of control (dose: 0.5 mg/kg/injection, schedule: Q01DX005 (ip), vehicle: saline); 103 % of control (dose: 0.5 mg/kg/injection, schedule: Q01DX005 (ip), vehicle: suspension in saline); 92 % of control and 113 % of control (dose: 0.5 mg/kg/injection, schedule: Q01DX005 (ip), vehicle: water); 114 % of control (dose: 0.5 mg/kg/injection, schedule: Q03HX008 (ip), vehicle: saline); 109 % of control and 110 % of control and 116 % of control (dose: 1.0 mg/kg/injection, schedule: Q01DX005 (ip), vehicle: saline); 108 % of control (dose: 1.0 mg/kg/injection, schedule: Q01DX005 (ip), vehicle: suspension in saline). Besides, the T/C (dose: 1.0 mg/kg/injection, schedule: Q01DX005 (ip), vehicle: water) is 102 % of control and 116 % of control; the T/C (dose: 2.0 mg/kg/injection, schedule: Q01DX005 (ip), vehicle: saline) was 116 % of control and 118 % of control; the T/C (dose: 2.0 mg/kg/injection, schedule: Q01DX005 (ip), vehicle: suspension in saline) is 121 % of control; the T/C (dose: 2.0 mg/kg/injection, schedule: Q01DX005 (ip), vehicle: water) is 107 % of control and 113 % of control; the T/C under setting [1] was 100 % of control; the T/C (dose: 4.0 mg/kg/injection, schedule: Q01DX005 (ip), vehicle: saline) is 100 % of control and 118 % of control and 86 % of control. The T/C is 96 % of control under setting [2]; 103 % of control under setting [3]; 89 % of control (dose: 32.0 mg/kg/injection, schedule: Q01DX001 (oral), vehicle: saline).
